Experiment [1] concerns the target T1, pseudo-kinase domain (JH2) of human V617F mutant JAK2 (Homo sapiens, UniProt O60674, F794H/V617F/W659A/W777A).
T1 construct: pseudo-kinase domain (JH2, amino-acids 536-812 with 3 surface mutations W659A, W777A, F794H); His (C); purchased BPS Bioscience 79498; host or cells: baculovirus expression system
In words: JAK2 LanthaScreen JH2-V617F Binding Assay. Conditions: 50 nM Fluorescent JAK2-JH2 Tracer, 1 hour at 25° C. As to the method:
(§1) Example C. JAK2 LanthaScreen JH2-V617F Binding Assay JAK2 JH2-V617F binding assay utilizes pseudo-kinase domain (JH2, amino-acids 536-812 with 3 surface mutations […]) of human V617F mutant JAK2 expressed as C-terminal His-Avi-tagged, biotinylated protein in a baculovirus expression system (BPS Bioscience, Catalog #79498). The assay was conducted in black 384-well polystyrene plates in a final reaction volume of 20 μL. JAK2 JH2-V617F (0.26 nM) was incubated with compounds (100 nL serially diluted in DMSO) in the presence of 50 nM Fluorescent JAK2-JH2 Tracer (MedChem Express Catalog #HY-102055) and 0.25 nM Streptavidin-Tb cryptate (Cisbio Part #610SATLB) in assay buffer (50 mM Tris, pH=7.5, 10 mM MgCl2, 0.01% Brij-35, 0.1% BSA, 1 mM EGTA, 5% Glycerol and 5 mM DTT). Non-specific binding was accessed in the presence of 2 mM ATP. After incubation for 1 hour at 25° C., LanthaScreen signals were read on a PHERAstar FS plate reader (BMG LABTECH). Data was analyzed with IDBS XLfit and GraphPad Prism 5.0 software using a four parameter dose response curve to determine IC50 for each compound.
(Time-resolved FRET reads energy transfer from a long-lived donor to a nearby acceptor.)

In experiment [2] the target is T2, pseudo-kinase domain (JH2) of human Wild Type JAK2 (Homo sapiens, UniProt O60674, F794H/W659A/W777A).
T2 construct: pseudo-kinase domain (JH2, amino-acids 536-812 with 3 surface mutations W659A, W777A, F794H); His (C); purchased BPS Bioscience 79463; host or cells: baculovirus expression system
In words: JAK2 LanthaScreen JH2-WT Binding Assay. The conditions noted are these: 50 nM Fluorescent JAK2-JH2 Tracer, 1 hour at 25° C. As to the method:
as §1, with “Example B.” for “Example C.”, “LanthaScreen JH2-WT” for “LanthaScreen JH2-V617F”, “JAK2 JH2-WT” for “JAK2 JH2-V617F”, “human Wild Type” for “human V617F mutant”, “Catalog #79463).” for “Catalog #79498).”, “JAK2 JH2-WT (0.145” for “JAK2 JH2-V617F (0.26”

For experiment [3], the target named is T3, catalytic domain (JH1) of human JAK2 (Homo sapiens, UniProt O60674).
T3 construct: catalytic domain (JH1, amino acids 826-1132) of human JAK2; FLAG (N); purchased Carna Biosciences 08-445-20N; host or cells: baculovirus expression system
In words: JAK2 LanthaScreen JH1 Binding Assay. Conditions: 50 nM Fluorescent JAK2-JH1 Tracer, 2 hours at 25° C. As to the method:
Example A. JAK2 LanthaScreen […] Binding Assay JAK2 JH1 binding assay utilizes catalytic domain (JH1, amino acids 826-1132) of human JAK2 expressed as N-terminal FLAG-tagged, biotinylated protein in a baculovirus expression system (Carna Biosciences, Product #08-445-20N). The assay was conducted in black 384-well polystyrene plates in a final reaction volume of 20 μL. JAK2 JH1 (1.5 nM) was incubated with compounds (100 nL serially diluted in DMSO) in the presence of 50 nM Fluorescent JAK2-JH1 Tracer and 0.5 nM Streptavidin-Tb cryptate (Cisbio Part #610SATLB) in assay buffer (50 mM Tris, pH=7.5, 10 mM MgCl2, 0.01% Brij-35, 0.1% BSA, 1 mM EGTA, 5% Glycerol and 5 mM DTT). Non-specific binding was accessed in the presence of 2 mM ATP. After incubation for 2 hours at 25° C., LanthaScreen signals were read on a PHERAstar FS plate reader (BMG LABTECH). Data was analyzed with IDBS XLfit and GraphPad Prism 5.0 software using a four parameter dose response curve to determine IC50 for each compound.

T1 sequence (O60674 536-812 V617F/W659A/W777A/F794H): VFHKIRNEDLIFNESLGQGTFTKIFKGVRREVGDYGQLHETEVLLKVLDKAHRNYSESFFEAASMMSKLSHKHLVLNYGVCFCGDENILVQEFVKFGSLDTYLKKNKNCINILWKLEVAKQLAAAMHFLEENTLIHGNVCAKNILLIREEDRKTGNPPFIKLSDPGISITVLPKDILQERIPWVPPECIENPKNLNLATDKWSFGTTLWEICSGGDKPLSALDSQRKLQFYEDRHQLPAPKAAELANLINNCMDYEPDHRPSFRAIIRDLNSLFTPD
T3 sequence (O60674 826-1132): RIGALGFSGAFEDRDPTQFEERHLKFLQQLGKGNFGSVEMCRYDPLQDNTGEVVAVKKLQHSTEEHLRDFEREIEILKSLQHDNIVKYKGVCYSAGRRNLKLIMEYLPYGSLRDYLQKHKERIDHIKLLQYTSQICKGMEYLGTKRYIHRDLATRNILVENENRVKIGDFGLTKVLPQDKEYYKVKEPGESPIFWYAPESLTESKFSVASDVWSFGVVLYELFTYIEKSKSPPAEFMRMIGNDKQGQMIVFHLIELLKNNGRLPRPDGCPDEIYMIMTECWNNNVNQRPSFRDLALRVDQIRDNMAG
T2 sequence (O60674 536-812 W659A/W777A/F794H): as the sequence (O60674 536-812 V617F/W659A/W777A/F794H) above, with F82V counted along it

Usually IC50 stands for the concentration needed to halve the response being measured. Lower therefore signals higher potency. Regarding `COc1ccccc1-c1c(-c2ccccc2)[nH]c2nc(N)[nH]c(=O)c12` [Example 57, 2-Amino-5-(2-methoxyphenyl)-6-phenyl-3,7-dihydro-4H-pyrrolo [2,3-d]pyrimidin-4-one], the half-maximal inhibitory concentration (IC50) in experiment [1] was 1 to 2.5 µM; in experiment [2] it was 1 to 2.5 µM; in experiment [3] it was above 2.5 µM.
For the compound `CN(C)S(=O)(=O)c1ccc(-c2[nH]c3nc(N)[nH]c(=O)c3c2-c2ccc(C(F)F)cc2)cc1` [Example 9, 4-(2-Amino-5-(4-(difluoromethyl)phenyl)-4-oxo-4,7-dihydro-3H-pyrrolo [2,3-d]pyrimidin-6-yl)-N,N-dimethylbenzene sulfonamide], the IC50 lay in the range of 0.5 to 1 µM in experiment [1], 0.5 to 1 µM in experiment [2] and 1 to 2.5 µM in experiment [3].
`CN(C)S(=O)(=O)c1ccc(-c2[nH]c3nc(N)[nH]c(=O)c3c2-c2ccnn2C)cc1` [Example 46, 4-(2-Amino-5-(1-methyl-1H-pyrazol-5-yl)-4-oxo-4,7-dihydro-3H-pyrrolo[2,3-d]pyrimidin-6-yl)-N,N-dimethylbenzenesulfonamide]: the IC50 in experiment [1], in experiment [2] and in experiment [3] was above 2.5 µM in each case.
`CN(C)S(=O)(=O)c1ccc(-c2[nH]c3nc(N)[nH]c(=O)c3c2-c2cccc3cn[nH]c23)cc1` [Example 20, 4-(2-Amino-5-(1H-indazol-7-yl)-4-oxo-4,7-dihydro-3H-pyrrolo[2,3-d]pyrimidin-6-yl)-N,N-dimethylbenzene sulfonamide]: the IC50 in experiment [1], in experiment [2] and in experiment [3] was above 2.5 µM in each case.
Regarding `CN(C)S(=O)(=O)c1ccc(-c2[nH]c3nc(N)[nH]c(=O)c3c2-c2cnn(Cc3ccccc3)c2)cc1` [Example 30, 4-(2-Amino-5-(1-benzyl-1H-pyrazol-4-yl)-4-oxo-4,7-dihydro-3H-pyrrolo[2,3-d]pyrimidin-6-yl)-N,N-dimethylbenzene sulfonamide], the IC50 in experiment [1], in experiment [2] and in experiment [3] was above 2.5 µM in each case.
Turning to `CN(C)S(=O)(=O)c1ccc(-c2[nH]c3nc(N)[nH]c(=O)c3c2-c2cccc(C(N)=O)c2)cc1` [Example 14, 3-(2-Amino-6-(4-(N,N-dimethylsulfamoyl)phenyl)-4-oxo-4,7-dihydro-3H-pyrrolo [2,3-d]pyrimidin-5-yl)benzamide], the IC50 in experiment [1], in experiment [2] and in experiment [3] was 1 to 2.5 µM throughout.
`CN(C)S(=O)(=O)c1ccc(-c2[nH]c3nc(N)[nH]c(=O)c3c2-c2cccc(C#N)c2)cc1` [Example 17, 4-(2-Amino-5-(3-cyanophenyl)-4-oxo-4,7-dihydro-3H-pyrrolo [2,3-d]pyrimidin-6-yl)-N,N-dimethyl-benzene sulfonamide]: the figures for the IC50 in experiment [1], in experiment [2] and in experiment [3] were 0.5 to 1 µM, 0.5 to 1 µM and 0.1 to 0.5 µM, respectively.
Take `CCc1c(-c2ccccc2)[nH]c2nc(N)[nH]c(=O)c12` [Example 55, 2-Amino-5-ethyl-6-phenyl-3,7-dihydro-4H-pyrrolo[2,3-d]pyrimidin-4-one]: the IC50 in experiment [1], in experiment [2] and in experiment [3] was above 2.5 µM throughout.
For the compound `COc1ccccc1-c1c(-c2ccc(S(=O)(=O)N(C)C)cc2)[nH]c2nc(N)[nH]c(=O)c12` [Example 65, 4-(2-Amino-5-(2-methoxyphenyl)-4-oxo-4,7-dihydro-3H-pyrrolo[2,3-d]pyrimidin-6-yl)-N,N-dimethylbenzene-sulfonamide], the figures for the IC50 in experiment [1], in experiment [2] and in experiment [3] were 0.1 to 0.5 µM, 0.1 to 0.5 µM and above 2.5 µM, respectively.
Turning to `COc1nn(Cc2ccc(C(=O)O)cc2)cc1-c1c(-c2ccc(S(=O)(=O)N(C)C)cc2)[nH]c2nc(N)[nH]c(=O)c12` [Example 50], the IC50 is at most 0.1 µM in experiment [1], at most 0.1 µM in experiment [2] and above 2.5 µM in experiment [3].
Regarding `CN(C)S(=O)(=O)c1ccc(-c2[nH]c3nc(N)[nH]c(=O)c3c2-c2ccccc2F)cc1` [Example 64, 4-(2-Amino-5-(2-fluorophenyl)-4-oxo-4,7-dihydro-3H-pyrrolo[2,3-d]pyrimidin-6-yl)-N,N-dimethylbenzene-sulfonamide], the IC50 in experiment [1], in experiment [2] and in experiment [3] was 0.1 to 0.5 µM in each case.
In the case of `CN(C)S(=O)(=O)c1ccc(-c2[nH]c3nc(N)[nH]c(=O)c3c2-c2cccc3c2OC(F)(F)O3)cc1` [Example 12, 4-(2-Amino-5-(2,2-difluorobenzo[d] [1,3]dioxol-4-yl)-4-oxo-4,7-dihydro-3H-pyrrolo[2,3-d]pyrimidin-6-yl)-N,N-dimethylbenzene sulfonamide], the IC50 was above 2.5 µM in experiment [1], above 2.5 µM in experiment [2] and 1 to 2.5 µM in experiment [3].
With `CN1CCC(c2ccc(-c3c(-c4ccc(S(=O)(=O)N(C)C)cc4)[nH]c4nc(N)[nH]c(=O)c34)cc2)CC1` [Example 8, 4-(2-Amino-5-(4-(1-methylpiperidin-4-yl)phenyl)-4-oxo-4,7-dihydro-3H-pyrrolo[2,3-d]pyrimidin-6-yl)-N,N-dimethylbenzene sulfonamide], the half-inhibitory concentration (IC50) in experiment [1] was 1 to 2.5 µM; in experiment [2], 1 to 2.5 µM; in experiment [3], above 2.5 µM.
With `COc1ccccc1-c1c(-c2ccc(CN3CCC(S(C)(=O)=O)CC3)cc2)[nH]c2nc(N)[nH]c(=O)c12` [Example 53], the IC50 in experiment [1] is 0.1 to 0.5 µM; in experiment [2], 0.1 to 0.5 µM; in experiment [3] it was above 2.5 µM.
Take `COc1ccc(C)cc1-c1c(-c2ccc(S(=O)(=O)N(C)C)cc2)[nH]c2nc(N)[nH]c(=O)c12` [Example 66, 4-(2-Amino-5-(2-methoxy-5-methylphenyl)-4-oxo-4,7-dihydro-3H-pyrrolo[2,3-d]pyrimidin-6-yl)-N,N-dimethylbenzenesulfonamide]: the IC50 was 0.1 to 0.5 µM in experiment [1], 0.1 to 0.5 µM in experiment [2] and above 2.5 µM in experiment [3].
For the compound `COc1ccccc1-c1c(-c2cccc(S(C)(=O)=O)c2)[nH]c2nc(N)[nH]c(=O)c12` [Example 63, 2-Amino-5-(2-methoxyphenyl)-6-(3-(methylsulfonyl)phenyl)-3,7-dihydro-4H-pyrrolo[2,3-d] pyrimidin-4-one], the IC50 in experiment [1], in experiment [2] and in experiment [3] was above 2.5 µM each time.
`CN(C)S(=O)(=O)c1ccc(-c2[nH]c3nc(N)[nH]c(=O)c3c2-c2cccc3c2OC(C)(C)C3)cc1` [Example 71, 4-(2-Amino-5-(2,2-dimethyl-2,3-dihydrobenzofuran-7-yl)-4-oxo-4,7-dihydro-3H-pyrrolo[2,3-d]pyrimidin-6-yl)-N,N-dimethylbenzenesulfonamide]: the IC50 in experiment [1], in experiment [2] and in experiment [3] was above 2.5 µM each time.
With `CN(C)S(=O)(=O)c1ccc(-c2[nH]c3nc(N)[nH]c(=O)c3c2-c2ccc3c(c2)CCNC3=O)cc1` [Example 21, 4-(2-Amino-4-oxo-5-(1-oxo-1,2,3,4-tetrahydro-isoquinolin-6-yl)-4,7-dihydro-3H-pyrrolo[2,3-d]pyrimidin-6-yl)-N,N-dimethylbenzene sulfonamide], the IC50 in experiment [1] was in the range of 0.1 to 0.5 µM; in experiment [2], 0.1 to 0.5 µM; in experiment [3] it was 1 to 2.5 µM.
